From patent US20170152245A1 (National Taiwan University, priority 2015, published 2017)
pIC50: −log10 of the molar value. Where two headings read alike, the source gives them in different places.

How the values were obtained:
[1] = tested on: human platelets; experiment: Platelet [Ca2+]i mobilization by Fura 2-AM fluorescence; assay type: cell-based; conditions: for collagen-evoked increase of [Ca2+]i: collagen 10 μg/ml, Fura-2-loaded platelets
Description: After centrifugating platelet-rich plasma at 500 g, 25° C. for 8 min, isolated platelets were resuspended in Ca^2+-free Tyrode solution. The platelet suspensions were protected from light and incubated with Fura 2-AM (5 μM) at 37° C. for 30 min. Human platelets were then prepared as described previously. The washed platelet count was adjusted to 3-4.5×10^8 platelets/ml. Finally, the external Ca^2+ concentration of the platelet suspensions was adjusted to 1 mM. The rise in [Ca^2+]i was measured using a fluorescence spectrophotometer (CAF 110, Jasco, Japan) at excitation wavelengths of 340 and 380 nm, and an emission wavelength of 500 nm. [Ca^2+]i was calculated from the fluorescence, using 224 nM as the Ca^2+-Fura 2 dissociation constant.

[2] = tested on: human platelets; experiment: Flow cytometric analysis of P-selectin expression; assay type: cell-based; conditions: for U46619-induced P-selectin expression: U46619 1 μM; for collagen-induced P-selectin expression: collagen 10 μg/ml
Description: […] Then the sample was further incubated with FITC-labeled anti-CD62P in the dark at room temperature. Prior to analysis, the volume was adjusted to 1 mL/tube with Tyrode's solution. The suspensions were immediately assayed by fluorescence activated cell sorter (Becton-Dickinson, FACScan System, San Joe, Calif.) using excitation and emission wavelength of 488 and 525 nm, respectively. Data were collected from 10000 platelets per experimental group. The level of P-selectin expression was expressed as mean fluorescence intensity.

[3] = tested on: washed human platelets; experiment: LDH assay in washed human platelets; assay type: cell-based; conditions: 10 μM
Excerpt: To begin with, potency of aggregation inhibition and estimated the IC50 of Ctkf6f2 on platelet aggregation caused by different agonists was investigated. […] In addition, the effect of Ctkf6f2 in platelet-rich plasma was also investigated. […] Furthermore, concentration-dependent inhibition curve in platelet suspension and platelet-rich plasma could be observed as well from FIG. 3. Moreover, LDH assay in washed human platelets with various Ctkf6f2 concentration used in the following experiments was performed.

[4] = tested on: human platelet suspension; experiment: Thrombin-induced platelet aggregation in human platelet suspension; assay type: cell-based; conditions: data not shown
Description: Human platelet suspension (PS) was prepared according to the method described previously. Briefly, blood sample, freshly obtained from healthy volunteers who had taken no medications during the preceding 2 weeks, was treated with acid citrate/dextrose (ACD) in a volume ratio of 9:1. After centrifugation at 120 g, 25° C. for 9 min, platelet-rich plasma was transferred into another plastic tube and incubated with heparin (6.4 U/ml) as well as prostaglandin E1 (1 μM). Platelets were spun down by centrifugation at 500 g, 25° C. for 8 min and subsequently washed two times with Tyrode solution (NaH2PO4 0.4 mM; NaCl 136.9 mM; KCl […]; NaHCO3 11.9 mM; CaCl2 2 mM; MgCl2 2.1 mM; glucose 11.1 mM; BSA 3.5 mg/ml; pH 7.35-7.4). The washed platelets were finally suspended in Tyrode's solution and the platelet count was adjusted to 3.75×10^8 platelets/ml. For platelet-rich plasma (PRP) preparation, whole blood was anticoagulated with 1/10 vol of sodium citrate (3.8%, w/v) and centrifuged at 150 g, 25° C. for 9 min.
Platelet aggregation was measured turbidimetrically with a Lumi-aggregometer (Payton Scientific) at 37° C. under stirring condition (900 rpm). […] The extent of platelet aggregation was determined by recording the increase of light transmission relative to that of control (maximal aggregation, as 100%) for 6 min after the addition of inducer. […]

[5] = target: T1, TP receptor (Homo sapiens, UniProt P21731); experiment: [3H]SQ-29548 binding to TP receptor of recombinant HEK-293 cells
T1 construct: expressed in transfected cells; host or cells: HEK-293
T1 sequence (P21731 1-343): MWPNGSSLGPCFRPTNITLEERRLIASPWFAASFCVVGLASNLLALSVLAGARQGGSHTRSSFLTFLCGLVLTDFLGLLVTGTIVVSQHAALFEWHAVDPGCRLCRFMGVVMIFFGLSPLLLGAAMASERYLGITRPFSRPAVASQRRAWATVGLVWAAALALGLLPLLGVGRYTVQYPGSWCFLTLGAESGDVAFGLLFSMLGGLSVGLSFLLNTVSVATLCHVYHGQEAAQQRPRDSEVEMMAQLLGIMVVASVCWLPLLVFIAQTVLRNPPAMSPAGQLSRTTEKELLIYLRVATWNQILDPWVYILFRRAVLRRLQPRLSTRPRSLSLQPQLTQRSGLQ
Description: Freshly prepared samples of this suspension were incubated with [^3H]SQ-29548 (5 nM final concentration), for 60 min at 25° C. The displacement was initiated by addition of nstpbp5185 dissolved in the same buffer. After incubation (30 min, 25° C.), ice-cold Tris-HCl buffer (10 mM, pH 7.4) was added, the sample was rapidly filtered through a glass fiber filter, and the tube rinsed twice with ice-cold buffer. The filters were then placed in plastic scintillation vials containing an emulsion-type scintillation mixture, and the radioactivity was counted.

[6] = tested on: rats; experiment: Gastric damage in rats; assay type: in vivo; conditions: 40 μg g^−1 oral, 3 h
Description: Rats (Wistar) were fasted overnight then given aspirin at dose of 150 mg/kg or nstpbp5185 at 40 mg/kg. Both drugs were suspended in 1% carboxymethylcellulose. Three hours later, the rats were sacrificed, the stomach excised, and the extent of hemorrhagic erosions scored by an observer unaware of treatment the rats received. Each lesion larger than 2 mm was counted for comparison. The stomach was fixed in formalin (pH, 7.4) and photographed.

Row | Compound | U46619-induced calcium mobilization ([1]; U46619 1 μM, 1 μM-3 μM compound) | collagen-evoked increase of [Ca2+]i [1] | U46619-induced P-selectin expression [2] | collagen-induced P-selectin expression [2] | cytotoxicity to platelets (LDH assay) [3] | effect on platelet aggregation caused by thrombin [4] | thrombin-evoked increase of [Ca2+]i ([1]; thrombin 0.1 U/ml, even at 60 μM) | Thromboxane receptor ([5]; Table III arrows) | pIC50 ([5]; [3H]SQ-29548 5 nM, read-out: IC50 in displacing 3H-SQ-29548 from TP receptor expressed on HEK-293 cells) | pIC50 ([5]; read-out: thromboxane A2 receptor blockade IC50) | gastric lesions (>2 mm) [6]
1 | Cc1ccc(-c2nc3ccc(F)cc3n2Cc2cccc(F)c2)o1 [Ctkf6f2, 6-fluoro-1-(3-fluorobenzyl)-2-(5-methyl-2-furyl)benzimidazole] | markedly inhibited | concentration-dependently inhibited | decreased | decreased | little cytotoxicity | – | – | – | – | – | –
2 | Cc1ccc(-c2nc3ccccc3n2Cc2ccccc2)o1 [Example 6, 1-Benzyl-2-(5-methyl-2-furyl)benzimidazole] | – | markedly inhibited | significantly reduced | concentration-dependently reduced to baseline | – | little effects | no effect | ↓ | ~7.00 | 7.00 | did not cause significant lesion
